Literature values in patent US11602507B2, “Extended release oral composition of memantine or its salt and its process for the preparation” (TRIKONA PHARMACEUTICALS PVT. LTD, priority 2019, dated 2023).

CC12CC3CC(C)(C1)CC(N)(C3)C2 [Memantine, 1-amino-3,5-dimethyladamantane]
solubility in water: highly soluble in water
